In one experiment the test system is Leishmania donovani. Description: Antiprotozoal activity against amastigote form of Leishmania donovani MHOM/ET/67/L82 after 72 hrs by alamar blue assay. The class given is functional, organism-based. The conditions noted are these: MHOM/ET/67/L82, 72 h. (The colour change of resazurin is a common sign of viable cells or microbes.)
Another experiment relates to Plasmodium falciparum. Description: Antiprotozoal activity against erythrocytic form of chloroquine/pyrimethamine-resistant Plasmodium falciparum K1 after 48 hrs by [3H]-hypoxanthine incorporation assay. The class given is functional, organism-based.
In another experiment the test system is L6. The experiment in a line: Cytotoxicity against rat L6 cells after 72 hrs by alamar blue assay. The class given is cell-based. The conditions noted are these: L6, 72 h.
Experiment [1] has as its system Trypanosoma brucei rhodesiense. Description: Antiprotozoal activity against blood stream form of Trypanosoma brucei rhodesiense STIB900 after 72 hrs by alamar blue assay. The class given is functional, organism-based. Conditions: STIB900, 72 h.
The subject of another experiment is Trypanosoma cruzi. Description: Antiprotozoal activity against trypomastigote form of Trypanosoma cruzi Tulahuen C2C4 infected in rat L6 cells after 96 hrs by CPRG/Nonidet-based […]. The class given is functional, organism-based. The conditions noted are these: Tulahuen C2C4, L6, 96 h.

SMILES strings stand for the structures. Bounds are passed on as bounds.

By IC50 is commonly meant the concentration that inhibits the measured activity by half. `CC1=C(O)/C(=C/[C@H](C)CCC/C(C)=C/CCc2coc(CC3=CCN(CC(=O)O)C3=O)c2)OC1=O`: the IC50 with Leishmania donovani was 120 µM; in the experiment on Plasmodium falciparum, 95 µM; in the experiment on L6 it was more than 200 µM; in experiment [1] it was 130 µM.

As to `CC1=C(O)/C(=C/[C@H](C)CCC/C(C)=C/CCC2=CC(Cc3ccoc3)N(CC(=O)O)C2=O)OC1=O` (stereo partly specified), the IC50 in the experiment on Leishmania donovani is 95 µM; with Plasmodium falciparum, more than 100 µM; with L6, more than 200 µM; in experiment [1], 130 µM.

For the compound `O=C(Cn1ccnc1[N+](=O)[O-])NCc1ccccc1` [BENZNIDAZOLE], the IC50 in the experiment with Trypanosoma cruzi was determined as 3.07 µM.

As to `CC1=C(O)/C(=C/[C@H](C)CCC/C(C)=C/CCc2coc(Cc3ccoc3)c2)OC1=O` [IRCININ 1], the half-inhibitory concentration (IC50) turned out to be 31 µM in the experiment with Leishmania donovani; 58 µM in the experiment with Plasmodium falciparum; 150 µM in the experiment with L6; 97 µM in experiment [1]; 120 µM with Trypanosoma cruzi.

In the case of `CC1=C(O)/C(=C/[C@H](C)CC/C=C(/C)CCCc2coc(Cc3ccoc3)c2)OC1=O` [IRCININ 2], the IC50 in the experiment with Leishmania donovani came to 28 µM; in the experiment with Plasmodium falciparum, 56 µM; with L6, 140 µM; in experiment [1], 65 µM; in the experiment on Trypanosoma cruzi it was 110 µM.

In experiment [1], `Nc1nc(N)nc(Nc2ccc([As]3SCC(CO)S3)cc2)n1` (stereo unspecified) [MELARSOPROL] returned an IC50 of 0.015 µM.

As for `COc1cc([C@@H]2c3cc4c(cc3[C@H](O)[C@H]3COC(=O)[C@H]23)OCO4)cc(OC)c1OC` [PODOFILOX], the IC50 with L6 was determined as 0.01 µM.

Source of the values: ChEMBL document CHEMBL4130402, “Antiprotozoal Linear Furanosesterterpenoids from the Marine Sponge Ircinia oros” (J Nat Prod, 2017).
